According to ChEMBL document CHEMBL1201862, “PubChem BioAssay data set” (2004):
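The compound was tested at five concentrations on cells cultured in 96-well plates, with a 48-hour exposure period. Abbreviation: GI50, concentration required for 50% inhibition of growth.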 The source made the active and inactive calls. Cut-off read from the data, not from the text of the source: active = GI50 up to about 1.1 µM and inactive = higher.

Columns and labels:
Test in all cases: inhibition of tumour cell growth, NCI panel, 48 h
M19-MEL = test system: M19-MEL
NCI-H460 = test system: NCI-H460
UACC-257 = test system: UACC-257
NCI-H23 = test system: NCI-H23
HOP-18 = test system: HOP-18
RXF 393 = test system: RXF 393
SNB-19 = test system: SNB-19
TK-10 = test system: TK-10
UACC-62 = test system: UACC-62
A498 = test system: A498
SF-268 = test system: SF-268
KM-20L2 = test system: KM-20L2
SK-MEL-28 = test system: SK-MEL-28
OVCAR-8 = test system: OVCAR-8
SW-620 = test system: SW-620
SR = test system: SR
M14 = test system: M14
HCT-116 = test system: HCT-116
SF-539 = test system: SF-539
OVCAR-4 = test system: OVCAR-4
COLO 205 = test system: COLO 205
SNB-78 = test system: SNB-78
MOLT-4 = test system: MOLT-4
DMS-273 = test system: DMS-273
IGROV-1 = test system: IGROV-1
SN12C = test system: SN12C
EKVX = test system: EKVX
SNB-75 = test system: SNB-75
HCC 2998 = test system: HCC 2998
UO-31 = test system: UO-31
NCI-H522 = test system: NCI-H522
ACHN = test system: ACHN
SK-OV-3 = test system: SK-OV-3
SF-295 = test system: SF-295
HCT-15 = test system: HCT-15
HL-60 = test system: HL-60
HOP-62 = test system: HOP-62
U-251 = test system: U-251
Malme-3M = test system: Malme-3M
786-0 = test system: 786-0
LXFL 529 = test system: LXFL 529
DLD-1 = test system: DLD-1
HOP-92 = test system: HOP-92
KM12 = test system: KM12
A549 = test system: A549
CAKI-1 = test system: CAKI-1
HT-29 = test system: HT-29
DMS-114 = test system: DMS-114
LOX IMVI = test system: LOX IMVI
SK-MEL-2 = test system: SK-MEL-2
SK-MEL-5 = test system: SK-MEL-5
CCRF-CEM = test system: CCRF-CEM
RXF 631 = test system: RXF 631
NCI-H226 = test system: NCI-H226
K562 = test system: K562
OVCAR-3 = test system: OVCAR-3
OVCAR-5 = test system: OVCAR-5
RPMI-8226 = test system: RPMI-8226

Measured: GI50

O=C1CCC(c2nc3ccccc3o2)C(=O)N1 (stereo not drawn)
> 100 µM: HCT-15
inactive: M19-MEL > 100 µM | NCI-H460 > 100 µM | UACC-257 > 100 µM | NCI-H23 > 100 µM | HOP-18 > 100 µM | RXF 393 > 100 µM | SNB-19 > 100 µM | TK-10 > 100 µM | UACC-62 > 100 µM | A498 > 100 µM | SF-268 > 100 µM | KM-20L2 > 100 µM | SK-MEL-28 > 100 µM | OVCAR-8 > 100 µM | SW-620 > 100 µM | SR > 100 µM | M14 > 100 µM | HCT-116 > 100 µM | SF-539 > 100 µM | OVCAR-4 > 100 µM | COLO 205 > 100 µM | SNB-78 > 100 µM | MOLT-4 > 100 µM | DMS-273 > 100 µM | IGROV-1 > 100 µM | SN12C > 100 µM | EKVX > 100 µM | SNB-75 79.1 µM | HCC 2998 > 100 µM | UO-31 > 100 µM | NCI-H522 > 100 µM | ACHN > 100 µM | SK-OV-3 > 100 µM | SF-295 > 100 µM | HL-60 > 100 µM | HOP-62 > 100 µM | U-251 > 100 µM | Malme-3M > 100 µM | 786-0 > 100 µM | LXFL 529 > 100 µM | DLD-1 > 100 µM | HOP-92 > 100 µM | KM12 > 100 µM | A549 > 100 µM | CAKI-1 > 100 µM | HT-29 > 100 µM | DMS-114 > 100 µM | LOX IMVI > 100 µM | SK-MEL-2 > 100 µM | SK-MEL-5 > 100 µM | CCRF-CEM > 100 µM | RXF 631 > 100 µM | NCI-H226 > 100 µM | K562 > 100 µM | OVCAR-3 > 100 µM

Cc1ccc(NC(=O)C(=O)CC(=O)c2c(C)[n+]([O-])c3ccccc3[n+]2[O-])cc1
31.8 µM: HCT-15
inactive: M19-MEL 16.4 µM | NCI-H460 27.9 µM | UACC-257 24.2 µM | NCI-H23 20.3 µM | HOP-18 30.9 µM | RXF 393 54.8 µM | SNB-19 54.1 µM | TK-10 91 µM | UACC-62 17.7 µM | A498 > 100 µM | SF-268 35.8 µM | KM-20L2 30.8 µM | SK-MEL-28 46.6 µM | OVCAR-8 22.8 µM | SW-620 33.7 µM | SR 20.5 µM | M14 23.9 µM | HCT-116 18.6 µM | SF-539 29.2 µM | OVCAR-4 22.6 µM | COLO 205 23.9 µM | SNB-78 49.4 µM | MOLT-4 23.4 µM | DMS-273 25.9 µM | IGROV-1 22 µM | SN12C 36.5 µM | EKVX 16.9 µM | SNB-75 23.6 µM | HCC 2998 44 µM | UO-31 > 100 µM | NCI-H522 20.9 µM | ACHN 26.2 µM | SK-OV-3 73.1 µM | SF-295 51.1 µM | HL-60 19.3 µM | OVCAR-5 40.6 µM | HOP-62 > 100 µM | U-251 31 µM | Malme-3M 27.9 µM | 786-0 40.6 µM | LXFL 529 35.2 µM | HOP-92 21.9 µM | KM12 29.2 µM | A549 31 µM | CAKI-1 79.1 µM | HT-29 33.6 µM | DMS-114 18.2 µM | LOX IMVI 20 µM | SK-MEL-2 21 µM | SK-MEL-5 26.8 µM | RPMI-8226 24.4 µM | CCRF-CEM 20.1 µM | RXF 631 36.5 µM | NCI-H226 > 100 µM | K562 21.5 µM | OVCAR-3 12 µM
